From PubChem BioAssay AID681 (The Scripps Research Institute Molecular Screening Center, 2007)

Biological target: Nuclear receptor ROR-alpha (Homo sapiens) (UniProt P35398)
Assay: RORA ligand-binding domain transactivation agonists – cell-based, CHO-K1, Gal4-RORA LBD, luciferase luminescence, dose response (AID 681)
Details: CHO-K1 Gal4-RORA LBD luciferase reporter

Nuclear receptor ROR-alpha (Homo sapiens), sequence (P35398 whole entry, looked up, the tested form may be a part): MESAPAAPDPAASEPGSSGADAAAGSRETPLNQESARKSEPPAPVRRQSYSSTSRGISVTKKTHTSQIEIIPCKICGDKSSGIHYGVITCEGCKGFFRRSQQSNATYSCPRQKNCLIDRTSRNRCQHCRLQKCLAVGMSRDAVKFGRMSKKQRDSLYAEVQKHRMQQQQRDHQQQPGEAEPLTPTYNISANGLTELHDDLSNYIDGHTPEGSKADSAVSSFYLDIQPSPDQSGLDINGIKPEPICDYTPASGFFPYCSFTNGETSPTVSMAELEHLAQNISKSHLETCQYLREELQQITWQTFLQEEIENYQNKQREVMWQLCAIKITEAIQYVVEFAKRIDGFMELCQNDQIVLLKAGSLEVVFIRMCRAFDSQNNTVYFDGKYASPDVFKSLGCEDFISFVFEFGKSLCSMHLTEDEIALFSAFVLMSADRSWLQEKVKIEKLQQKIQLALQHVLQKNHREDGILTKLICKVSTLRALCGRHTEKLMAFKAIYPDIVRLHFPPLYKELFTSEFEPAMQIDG

| EC50 [nM] | SMILES |
| --- | --- |
| 3630 | O=C1COc2ccc(OCc3ccc(F)cc3)cc21 |
| 1350 | C=CCOc1ccc(/C=C/C(C)=N\O)cc1 |
| 491 | CCOc1ccc(/C=C\C(C)=N\O)cc1 |
